Experimental data from paper PMC4427492, “The Repellent DEET Potentiates Carbamate Effects via Insect Muscarinic Receptor Interactions: An Alternative Strategy to Control Insect Vector-Borne Diseases” (PLoS ONE, 2015).

Tests used:
[1] = target: T1, human M3 muscarinic acetylcholine receptor (hM3 mAChR) (Homo sapiens, UniProt P20309); experiment: [3H]NMS radioligand displacement; also antagonism of CCh-induced calcium mobilization; format: binding
T1 construct: gene CHRM3; membranes of CHO cells stably expressing human M3

[2] = target: T2, human M1 muscarinic acetylcholine receptor (hM1 mAChR) (Homo sapiens, UniProt P11229); experiment: as above; format: binding
T2 construct: gene CHRM1; membranes of CHO cells stably expressing human M1
T2 sequence (P11229 1-460): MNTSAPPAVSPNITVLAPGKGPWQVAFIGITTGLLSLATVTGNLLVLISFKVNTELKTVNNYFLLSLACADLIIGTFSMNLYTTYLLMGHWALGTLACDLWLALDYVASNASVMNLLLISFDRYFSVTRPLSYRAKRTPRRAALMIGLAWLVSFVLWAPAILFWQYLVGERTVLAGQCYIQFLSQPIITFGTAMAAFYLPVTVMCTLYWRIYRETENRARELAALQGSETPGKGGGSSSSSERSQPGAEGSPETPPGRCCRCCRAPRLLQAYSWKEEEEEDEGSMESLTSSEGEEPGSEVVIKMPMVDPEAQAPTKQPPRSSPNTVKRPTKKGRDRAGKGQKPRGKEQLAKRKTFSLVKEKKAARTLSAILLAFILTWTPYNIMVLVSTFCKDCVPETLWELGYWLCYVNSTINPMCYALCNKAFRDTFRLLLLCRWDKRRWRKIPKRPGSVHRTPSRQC
Source text: [3H]NMS radioligand displacement; also antagonism of CCh-induced calcium mobilization on human M1 muscarinic acetylcholine receptor (hM1 mAChR) | DEET displaced the [^3H]N-Methyl Scopolamine (NMS) binding from M1 and M3 mAChRs but only in the millimolar range

[3] = test system: acetylcholinesterase (AChE); experiment: Ellman spectrophotometric AChE activity assay on DUM neuron suspension; format: cell-based, Periplaneta americana

T1 sequence (P20309 whole entry): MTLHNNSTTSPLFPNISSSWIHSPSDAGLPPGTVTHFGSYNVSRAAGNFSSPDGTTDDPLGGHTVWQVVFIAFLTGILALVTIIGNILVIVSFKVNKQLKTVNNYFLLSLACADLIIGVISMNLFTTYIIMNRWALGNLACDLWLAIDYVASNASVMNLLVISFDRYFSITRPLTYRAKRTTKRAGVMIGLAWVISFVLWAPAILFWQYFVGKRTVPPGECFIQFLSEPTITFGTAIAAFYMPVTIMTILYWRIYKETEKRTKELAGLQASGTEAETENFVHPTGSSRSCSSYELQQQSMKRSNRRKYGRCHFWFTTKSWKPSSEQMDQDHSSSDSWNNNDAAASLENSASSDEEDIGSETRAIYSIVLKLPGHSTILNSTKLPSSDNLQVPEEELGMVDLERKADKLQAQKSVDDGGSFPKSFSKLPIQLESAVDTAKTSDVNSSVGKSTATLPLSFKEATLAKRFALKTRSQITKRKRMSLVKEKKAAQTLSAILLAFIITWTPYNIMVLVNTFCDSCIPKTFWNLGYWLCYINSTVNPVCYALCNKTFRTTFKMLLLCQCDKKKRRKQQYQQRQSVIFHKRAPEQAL

CCN(CC)C(=O)c1cccc(C)c1 [DEET, N,N-Diethyl-3-methylbenzamide]
Ki [1]: 370 ± 20 µM
Ki [2]: 690 ± 190 µM

CNC(=O)Oc1ccccc1OC(C)C [propoxur, 2-isopropoxyphenylmethylcarbamate]
IC50 [3]: 0.02 µM
